Data taken from patent publication US10774083B2, “Heterocyclic amide compound” (TAKEDA PHARMACEUTICAL COMPANY LIMITED, priority 2016, dated 2020).

Target: T1, human PRS protein (His-Avi-hEPRS (998-1512)) (Homo sapiens, UniProt P07814)
T1 construct: to construct His-Avi-hEPRS (998-1512) expression plasmid; His tag (N); Avi tag (N); TEV cleavage site (ENLYFQG, then S; inferred from the forward primer hEPRS-TEV-NheF) (N); made in house; host or cells: E. coli BL21(DE3)
T1 sequence (P07814 998-1512 limits assumed): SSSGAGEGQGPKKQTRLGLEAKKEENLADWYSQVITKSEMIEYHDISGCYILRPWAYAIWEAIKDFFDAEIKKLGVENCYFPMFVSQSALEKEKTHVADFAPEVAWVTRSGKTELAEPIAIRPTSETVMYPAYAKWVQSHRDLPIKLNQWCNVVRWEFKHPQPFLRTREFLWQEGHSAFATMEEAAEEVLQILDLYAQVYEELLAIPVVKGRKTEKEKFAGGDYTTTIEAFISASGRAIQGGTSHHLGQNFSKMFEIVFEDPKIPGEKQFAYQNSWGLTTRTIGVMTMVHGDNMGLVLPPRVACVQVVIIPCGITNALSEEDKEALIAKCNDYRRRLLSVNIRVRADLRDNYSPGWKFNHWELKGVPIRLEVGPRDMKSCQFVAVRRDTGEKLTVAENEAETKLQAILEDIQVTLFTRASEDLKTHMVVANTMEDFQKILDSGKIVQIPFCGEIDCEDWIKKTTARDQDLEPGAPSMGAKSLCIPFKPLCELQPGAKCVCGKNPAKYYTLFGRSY
Test: PRS inhibitory activity ([32P]pyrophosphate exchange enzyme assay)
Format: biochemical
Settings: 300 nM test compound; read-out: inhibitory rate (%) of PRS
Method in brief: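 Compound was pre-incubated 60 min with 40 nM His-Avi-hEPRS (998-1512) (stock, E. coli-expressed) in Tris pH 7.5/KCl/DTT/Tween/MgCl2. Reaction began with substrate mix containing 300 μM ATP, 160 μM L-proline, 400 μM [32P]pyrophosphate (stock levels) and ran 30 min at room temperature. Charcoal-bound radioactivity was counted; inhibition was relative to no-reaction control.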

Cc1cc(N2CC[C@@](C#N)(C3CC3)C2=O)cc(C(=O)NCc2cc(F)cc(-c3cnn(C)c3)c2)n1 [Example 159, 4-((3S)-3-cyano-3-cyclopropyl-2-oxopyrrolidin-1-yl)-N-(3-fluoro-5-(1-methyl-1H-pyrazol-4-yl)benzyl)-6-methylpyridine-2-carboxamide]
inhibition at 0.3 µM: 101%
